Assay results reported in patent US8703815B2, “Small molecules that covalently modify transthyretin” (The Scripps Research Institute, priority 2009, dated 2014).
Where two headings read alike, the source gives them in different places.

Tests used:
WT-TTR [1] = biological target: T1, WT-TTR (Homo sapiens, UniProt P02766); assay: Fluorimetric assay with recombinant WT-TTR; assay type: binding
T1 construct: composed of 127-residue β-sheet-rich subunits; made in house; host or cells: E. coli
Protocol: WT-TTR was expressed in an E. coli expression system and purified as described previously. […] The samples were vortexed, and incubated for 18 h at 25° C. […] The excitation slit was set at 5 nm and the emission slit was set at […]. The samples were excited at 328 nm and the emission spectra were collected from 350 to 550 nm. WT-TTR was expressed and purified from an E. coli expression system as described previously. [Lashuel et al., Biochemistry 1999, 38:13560]. […] The samples were vortexed, and incubated for 18 hours at 25° C. […] The excitation slits was set at 5 nm and the emission slits was set at […]. The samples were excited at 328 nm and the emission spectra were collected from 330 to 550 nm (FIG. 4). The time-dependent fluorescence changes were monitored in similar manner (FIG. 5).

K15A-TTR [2] = biological target: T2, K15A-TTR (Homo sapiens, UniProt P02766, K35A); assay: Fluorimetric assay with recombinant K15A-TTR; assay type: binding; conditions: 24 hour incubation
T2 construct: composed of 127-residue β-sheet-rich subunits; made in house
Protocol: [The source words this procedure for another variant and says it was used here with some conditions changed.] The excitation spectra are shown with dotted traces (λmax=328 nm), and emission spectra are adjacently (λmax=384 nm). Very low fluorescence resulted from 328 nm excitation of stilbene Compounds 4 or 2 alone in buffer (FIGS. 4A and 4B; traces substantially on the X-axis).
WT-TTR was expressed in an E. coli expression system and purified as described previously. [Lashuel et al., Biochemistry 1999, 38, 13560-13573] The covalent TTR modifiers (A1 or A2) or the non-covalent TTR ligand B2 (5 μL of a 1.44 mM solution in DMSO, final concentration: 7.2 μM) were added to 1 mL of a solution of WT-TTR homotetramer (0.2 mg/mL, 3.6 μM) in 10 mM phosphate, 100 mM KCl and 1 mM EDTA (pH 7.0 phosphate buffer) in a 2 mL Eppendorf tube. The samples were vortexed, and incubated for 18 h at 25° C. The fluorescence changes were monitored using a Varian Cary 50 spectrofluorometer at 20° C. in a 1 cm path length quartz cell. The excitation slit was set at 5 nm and the emission slit was set at […]. The samples were excited at 328 nm and the emission spectra were collected from 350 to 550 nm.
WT-TTR was expressed and purified from an E. coli expression system as described previously. [Lashuel et al., Biochemistry 1999, 38:13560]. The covalent modifiers (Compounds 4 or 2) or the non-covalent TTR ligand Compound B2 (5 μL of a 1.44 mM solution in DMSO) were added to 1 mL of a solution of WT-TTR (0.2 mg/mL, 3.6 μM) in 10 mM phosphate, 100 mM KCl and 1 mM EDTA (pH 7.0) in a 2 mL Eppendorf tube. The samples were vortexed, and incubated for 18 hours at 25° C. The fluorescence changes were monitored using a Varian Cary 50 spectrofluorometer at 20° C. in a 1 cm path length quartz cell. The excitation slits was set at 5 nm and the emission slits was set at […]. The samples were excited at 328 nm and the emission spectra were collected from 330 to 550 nm (FIG. 4). The time-dependent fluorescence changes were monitored in similar manner (FIG. 5).

WT-TTR [3] = biological target: T1, WT-TTR; assay: Acid-mediated WT-TTR fibril formation assay (turbidity at 400 nm); assay type: biochemical; conditions: for IC50: % fibril formation after 72 hours, read-out: IC50 (apparent), inhibition of WT-TTR amyloidogenesis; for % Fibril Formation 7.2 μM (WT-TTR): compound 7.2 μM; for % Fibril Formation 7.2 μM (WT-TTR) / % Fibril Formation […] (WT-TTR): pH 4.4, 72 hours, 37° C.; for % Fibril Formation […] (WT-TTR): compound […]
Protocol: The mixtures were vortexed and incubated (maintained) for 18 hours at 25° C.

V30M-TTR = biological target: T3, V30M-TTR (Homo sapiens, UniProt P02766, V50M); assay: Acid-mediated V30M-TTR fibril formation assay (turbidity at 400 nm); assay type: biochemical; conditions: pH 4.4, 72 hours, 37° C.; for % Fibril Formation 7.2 μM (V30M-TTR): compound 7.2 μM; for % Fibril Formation […] (V30M-TTR): compound […]
T3 construct: composed of 127-residue β-sheet-rich subunits; made in house
Protocol: Compounds (5 μL of 1.44 mM solution in DMSO) were added to 495 μL of TTR (7.2 μM, in 10 mM sodium phosphate, 100 mM KCl, 1 mM EDTA, pH 7.0). The mixtures were vortexed and incubated (maintained) for 18 hours at 25° C. […] The solutions were vortexed to evenly distribute any precipitate, and turbidity was measured at 400 nm using a Hewlett Packard model 8453 UV-VIS Spectrophotometer.

[4] = biological target: T4, TTR in human blood plasma (Homo sapiens, UniProt P02766); assay: Modification of TTR in human blood plasma (immunocapture, RP-HPLC); assay type: binding; conditions: compound 10.8 μM, 24 hours, 37° C.; maximum 50%
T4 construct: RP-HPLC analysis of TTR captured from human plasma; from tissue; host or cells: human blood plasma
Protocol: Compounds 1-4 (10.8 μM) were incubated for 24 hours at 37° C. with human plasma, wherein the TTR concentration is 3.6-5.4 μM.
Furthermore, compound A2 was evaluated to determine its ability to bind selectively to and then react chemoselectively with TTR over the 4000+ other proteins in human blood plasma. Compound A2 (10.8 μM) was incubated with human blood plasma (TTR concentration is 3.6-5.4 μM) for 24 hours at 37° C. before immunoisolating human TTR using a Sepharose® resin-conjugated anti-TTR polyclonal antibody [Purkey et al., Proc. Natl. Acad. Sci. U.S.A. 2001, 98, 5566-5571].
The modification ratio of TTR by kinetic stabilizers in human plasma was evaluated as described [Purkey et al., Proc. Natl. Acad. Sci. U.S.A. 98:5566-5571 (2001)] with minor modifications. Briefly, compounds (7.5 μL of 1.44 mM solution in DMSO) were added to 1 mL of human plasma and incubated at 37° C. for 24 hours on a rocker (30 rpm). A 1:1 (v/v) slurry of unfunctionalized Sepharose® resin in 10 mM Tris, 140 mM NaCl, pH 8.0 (TSA) was added and the solutions were incubated for 1 hour at 4° C. on a rocker plate, followed by brief centrifugation.
Two 400 μL aliquots of the supernatants were added to 300 μL of 1:1 (v:v) slurry of anti-TTR antibody-conjugated Sepharose® resin in TSA. The solutions were gently rocked at 4° C. for 20 minutes (30 rpm), centrifuged, and supernatants were removed. The resin was washed by shaking for 1 minute in 1 mL of TSA solution containing 0.05% saponin (three times) and then 1 mL of TSA solution (twice). The TTR and bound test compound were dissociated from the resin by adding 155 μL of triethylamine (100 mM, pH 11.5) and vortexing for 1 minute. After centrifugation, 135 μL of solution containing test compound and TTR was analyzed by RP-HPLC as described above except that the linear gradients were run from 100:0 to 0:100 A:B for 45 minutes.

K15A-TTR [5] = biological target: T2, K15A-TTR; assay: RP-HPLC analysis of reaction with K15A-TTR homotetramer; assay type: binding
Description: A strictly analogous study performed with the K15A homotetrameric TTR mutant confirmed that K15 was essential for the observed chemoselective reaction between TTR and Compounds […] (FIG. 1A, bottom trace). […] However, it is important to note that Compounds 1-3 were only slightly less chemoselective (<5% reaction with K15A).
The ability of compounds A1 and A2, auxochromic analogs of previously discussed stilbenes [Klabunde et al., Nat. Struct. Biol. 2000, 7, 312-321; Connelly et al., Curr. Opin. Struc. Biol. 2010, 20, 54-62; Johnson et al., J. Med. Chem. 2008, 51, 6348-6358; Choi et al., J. Am. Chem. Soc. 2010, 132, 1359-1370; Choi et al., Nat. Chem. Biol. 2010, 6, 133-139; and Baures et al., Bioorg. Med. Chem. 1998, 6, 1389-1401] to form a chemoselective amide bond with the K15 residue of TTR was assessed by reverse-phase-HPLC and liquid chromatography-mass spectrometry analysis. […] The binding of the covalent modifier A2 to K15A-TTR (in the absence of amide bond conjugation) was confirmed by incubating A2 with K15A-TTR in phosphate buffer (pH 7) followed by K15A immunoisolation using a Sepharose® resin-conjugated anti-TTR polyclonal antibody [Purkey et al., Proc. Natl. Acad. Sci. U.S.A. 2001, 98, 5566-5571].
Recombinant WT-TTR was expressed as described previously [Lashuel et al., Biochemistry 38:13560-13573 (1999)]. For analysis of test compounds with TTR, each compound (1.5 μL in DMSO, 1.44 mM) was added to 300 μL of WT-TTR or K15A mutant TTR (3.6 μM, 10 mM sodium phosphate, 100 mM KCl, 1 mM EDTA, pH 7.0). The samples were vortexed, and incubated for 18 hours at 25° C. Reverse phase high performance liquid chromatography (RP-HPLC) was performed on a Water 600 E multi-solvent delivery system, using a Waters 486 tunable absorbance detector, a 717 autosampler, and a ThermoHypersil Keystone Betabasic-18 column μ150 Å pore size, 3 μm particle size, and mobile phase A; 0.1% TFA in 95% H2O+5% CH3CN and mobile phase B, 0.1% TFA in 95% CH3CN+5% H2O). Linear gradients were run from 100:0 to 0:100 A:B for 27 minutes.

| Structure (SMILES) | IC50 (WT-TTR [3]; WT-TTR 3.6 μM) | % Fibril Formation 7.2 μM (WT-TTR) (WT-TTR [3]; WT-TTR […]) | % Fibril Formation […] (WT-TTR) (WT-TTR [3]; WT-TTR […]) | % Fibril Formation 7.2 μM (V30M-TTR) (V30M-TTR) | % Fibril Formation […] (V30M-TTR) (V30M-TTR) | % Modification of TTR subunits in Human Blood Plasma [4] | reaction with K15A-TTR (in words) (K15A-TTR [5]) | further results |
| --- | --- | --- | --- | --- | --- | --- | --- | --- |
| CCCNC(=O)c1cccc(/C=C/c2cc(C)c(O)c(C)c2)c1 [Compound B1, (E)-3-(4-hydroxy-3,5-dimethylstyryl)-N-propylbenzamide] | – | – | – | – | – | – | – | time for binding to WT-TTR (WT-TTR [1]): ≤ 1 min; increase in fluorescence intensity with WT-TTR vs compound alone in buffer (WT-TTR [1]; WT-TTR […], compound 7.2 μM, 24 hours): about 400 fold; increase in fluorescence intensity with WT-TTR within 1 minute vs compound alone in buffer (WT-TTR [1]; time-dependent emission spectra): about 360 fold; increase in fluorescence intensity upon binding to K15A-TTR (K15A-TTR [2]): about 190 fold |
| Cc1cc(/C=C/c2cccc(C(=O)Oc3ccccc3[N+](=O)[O-])c2)cc(C)c1O [Compound 3, (E)-2-nitrophenyl 3-(4-hydroxy-3,5-dimethylstyryl)benzoate] | 1960 to 2260 nM | 4% | 21% | 3% | 33% | 49% (±0.7%) | – | – |
| Cc1cc(/C=C/c2ccc(C(=O)Oc3ccccc3[N+](=O)[O-])cc2)cc(C)c1O [Compound 6] | – | – | – | – | – | – | more non-chemoselective conjugation | – |
| O=C(Sc1ccccc1)c1cccc(/C=C/c2cc(Br)c(O)c(Br)c2)c1 [Compound 1, (E)-S-phenyl 3-(3,5-dibromo-4-hydroxystyryl)benzothioate] | 1960 to 2260 nM | 2% | 12% | 3% | 17% | 36% (±0.4%) | – | IC50 (WT-TTR [3]; WT-TTR […]): 2000 nM |
| Cc1cc(/C=C/c2cc(C(=O)Oc3ccc(F)cc3)cc(N(C)C)c2)cc(C)c1O [Compound A1, (E)-4-fluorophenyl 3-(dimethylamino)-5-(4-hydroxy-3,5-dimethylstyryl)benzoate] | – | – | – | – | – | – | no conjugation | fluorescence after incubation with WT-TTR (in words) (WT-TTR [1]; phosphate buffer pH 7, 18 hours): bright blue fluorescence |
